One experiment deals with T1, Human Calpain 1/NS1 (Homo sapiens, UniProt P07384).
T1 sequence (P07384 1-714): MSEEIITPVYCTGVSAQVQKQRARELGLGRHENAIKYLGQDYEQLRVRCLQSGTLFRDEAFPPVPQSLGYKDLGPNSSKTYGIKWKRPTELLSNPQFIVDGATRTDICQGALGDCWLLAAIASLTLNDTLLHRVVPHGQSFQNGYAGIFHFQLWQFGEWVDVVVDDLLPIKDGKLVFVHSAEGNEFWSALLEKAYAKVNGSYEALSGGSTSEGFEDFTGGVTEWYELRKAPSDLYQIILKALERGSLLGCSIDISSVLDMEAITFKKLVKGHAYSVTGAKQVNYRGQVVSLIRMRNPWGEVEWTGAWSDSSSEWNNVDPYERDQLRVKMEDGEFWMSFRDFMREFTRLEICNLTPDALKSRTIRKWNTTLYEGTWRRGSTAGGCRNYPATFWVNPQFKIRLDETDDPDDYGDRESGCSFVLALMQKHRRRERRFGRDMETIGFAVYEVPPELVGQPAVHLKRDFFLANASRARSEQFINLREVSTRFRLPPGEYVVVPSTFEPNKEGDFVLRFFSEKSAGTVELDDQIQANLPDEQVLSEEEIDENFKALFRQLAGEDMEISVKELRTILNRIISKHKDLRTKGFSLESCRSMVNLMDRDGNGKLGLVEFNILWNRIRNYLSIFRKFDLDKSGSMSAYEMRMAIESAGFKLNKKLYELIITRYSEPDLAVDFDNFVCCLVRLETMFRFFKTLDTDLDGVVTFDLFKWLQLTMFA
T1 sequence (P04632 1-268 partner): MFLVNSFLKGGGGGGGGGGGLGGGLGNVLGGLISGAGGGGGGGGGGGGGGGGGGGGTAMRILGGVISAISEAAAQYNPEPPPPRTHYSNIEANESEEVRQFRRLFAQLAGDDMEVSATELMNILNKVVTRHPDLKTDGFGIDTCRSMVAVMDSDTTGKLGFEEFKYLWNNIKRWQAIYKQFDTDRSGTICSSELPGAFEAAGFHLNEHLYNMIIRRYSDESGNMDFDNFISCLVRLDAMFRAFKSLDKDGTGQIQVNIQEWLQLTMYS
As to the kind of experiment: Biochemical inhibition of calpain 1, continuous fluorescence (FRET substrate) assay. The following applies: mean, read-out: Human Calpain 1/NS1 IC50 (nM)_MEAN. On the procedure:
(§1) Calpain 1, 2, and 9 activity and inhibition thereof are assessed by means of a continuous fluorescence assay. The SensoLyte 520 Calpain substrate (Anaspec Inc) is optimized for detecting calpain activity. This substrate contains a novel internally quenched 5-FAM/QXL™ 520 FRET pair. Calpains 1, 2, and 9 cleave the FRET substrate into two separate fragments resulting in an increase of 5-FAM fluorescence that is proportional to calpain activity.
(§2) Assays are typically setup in black 384-well plates using automated liquid handling as follows. Calpain assay base buffer typically contains 50 mM Tris, pH˜7.5, 100 mM NaCl and 1 mM DTT. Inhibitors are serially diluted in DMSO and used to setup 2× mixtures with calpains in the aforementioned buffer. After incubation at ambient temperature (25C), the reaction is initiated by adding a 2× mix of the fluorescent peptide substrate and CaCl2) (required for in-situ calpain activation) in the same buffer. Reaction progress curve data are typically collected for 10 min using excitation/emission wavelengths of 490 nm/520 nm on SpectraMax i3× or the FLIPR-Tetra plate readers (Molecular Devices Inc). Reaction rates were calculated from progress curve slopes typically over 1-5 min. Dose response curves (rate vs. log inhibitor concentration) were typically fit to a 4-parameter logistic function to extract IC50 values.

A further experiment deals with T2, Human Calpain 2/NS1 (Homo sapiens, UniProt P17655).
T2 sequence (P17655 1-700): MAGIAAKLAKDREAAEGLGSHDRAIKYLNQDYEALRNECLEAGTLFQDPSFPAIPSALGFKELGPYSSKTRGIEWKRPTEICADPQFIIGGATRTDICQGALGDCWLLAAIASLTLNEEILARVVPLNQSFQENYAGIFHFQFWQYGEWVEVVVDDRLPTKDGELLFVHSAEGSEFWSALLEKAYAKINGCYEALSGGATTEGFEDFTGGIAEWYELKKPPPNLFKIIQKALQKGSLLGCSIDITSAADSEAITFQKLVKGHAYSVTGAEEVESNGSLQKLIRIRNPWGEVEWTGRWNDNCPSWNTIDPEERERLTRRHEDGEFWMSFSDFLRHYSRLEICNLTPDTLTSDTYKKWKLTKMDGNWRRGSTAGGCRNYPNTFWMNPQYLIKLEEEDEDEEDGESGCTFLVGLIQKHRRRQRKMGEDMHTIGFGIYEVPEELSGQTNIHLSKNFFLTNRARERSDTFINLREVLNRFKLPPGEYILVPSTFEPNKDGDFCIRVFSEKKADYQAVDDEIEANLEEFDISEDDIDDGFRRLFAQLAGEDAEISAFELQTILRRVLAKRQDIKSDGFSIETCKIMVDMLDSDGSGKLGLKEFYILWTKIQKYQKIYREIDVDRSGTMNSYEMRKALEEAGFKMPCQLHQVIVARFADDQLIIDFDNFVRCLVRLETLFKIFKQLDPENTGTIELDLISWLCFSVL
T2 sequence (P04632 1-268 partner): T1 sequence (P04632 1-268 partner)
The experiment can be described thus: Biochemical inhibition of calpain 2, continuous fluorescence (FRET substrate) assay. To be noted: mean, read-out: Human Calpain 2/NS1 IC50 (nM)_MEAN. On the procedure: as §1, §2

The next experiment has as its target T3, Human Calpain 9/NS1 (Homo sapiens, UniProt O14815).
T3 sequence (O14815 1-690): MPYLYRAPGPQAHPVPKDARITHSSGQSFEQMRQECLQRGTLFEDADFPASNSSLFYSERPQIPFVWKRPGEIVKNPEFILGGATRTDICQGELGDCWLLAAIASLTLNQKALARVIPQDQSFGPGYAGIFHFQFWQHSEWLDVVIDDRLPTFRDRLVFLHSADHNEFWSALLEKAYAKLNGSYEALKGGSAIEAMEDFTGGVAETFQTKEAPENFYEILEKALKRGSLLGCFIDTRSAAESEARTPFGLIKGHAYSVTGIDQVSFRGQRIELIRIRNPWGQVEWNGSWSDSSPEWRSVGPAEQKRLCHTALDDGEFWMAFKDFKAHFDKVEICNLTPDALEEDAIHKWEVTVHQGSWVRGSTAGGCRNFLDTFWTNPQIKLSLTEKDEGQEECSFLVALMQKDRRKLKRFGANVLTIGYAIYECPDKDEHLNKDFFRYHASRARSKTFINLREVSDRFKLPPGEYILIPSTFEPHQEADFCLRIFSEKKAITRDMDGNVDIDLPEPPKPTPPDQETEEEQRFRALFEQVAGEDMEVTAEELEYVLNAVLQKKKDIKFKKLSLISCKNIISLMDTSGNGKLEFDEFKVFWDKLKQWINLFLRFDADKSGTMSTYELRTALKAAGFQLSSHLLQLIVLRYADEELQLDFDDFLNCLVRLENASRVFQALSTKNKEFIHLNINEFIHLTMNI
T3 sequence (P04632 1-268 partner): T1 sequence (P04632 1-268 partner)
As to the kind of experiment: Biochemical inhibition of calpain 9, continuous fluorescence (FRET substrate) assay. The following applies: mean, read-out: Human Calpain 9/NS1 IC50 (nM)_MEAN. The method, then:
as §1, §2

With `O=C[C@@H]1CC=CCCCCOc2ccccc2C(=O)N1` (mixture of isomers) [Compound 5, (S)-11-Oxo-2,3,4,5,8,9,10,11-octahydrobenzo[b][1]oxa[5]azacyclotridecine-9-carbaldehyde], the IC50 on Human Calpain 1/NS1 is > 10000 nM; on Human Calpain 2/NS1, 3000 to 10000 nM; at Human Calpain 9/NS1, < 3000 nM.

For the compound `COc1cc(CNC(=O)C(=O)C2CCCCOCCOCc3ccccc3C(=O)N2)cc(OC)c1` (stereo not drawn) [Compound 119, N-(3,5-dimethoxybenzyl)-2-oxo-2-(12-oxo-1,3,4,6,7,8,9,10,11,12-decahydrobenzo[f][1,4]dioxa[9]azacyclotetradecin-10-yl)acetamide], the IC50 on Human Calpain 1/NS1 was > 10000 nM; on Human Calpain 2/NS1, 3000 to 10000 nM; at Human Calpain 9/NS1, < 3000 nM.

`O=C[C@@H]1Cc2ccc(cc2)OC/C=C/COc2cccc(c2)-c2ccn(n2)-c2ncccc2C(=O)N1` [Compound 44, (2^2E,6S,11E)-4-oxo-2^1H-9,14-dioxa-5-aza-3(2,3)-pyridina-2(3,1)-pyrazola-1(1,3),8(1,4)-dibenzenacyclotetradecaphan-11-ene-6-carbaldehyde]: the IC50 at Human Calpain 1/NS1, on Human Calpain 2/NS1 and on Human Calpain 9/NS1 was < 3000 nM in each case.

Turning to “(S)-2-(1^3-methyl-11-oxo-1^1H-3-oxa-10-aza-1(1,5)-pyrazola-2(1,3)-benzenacycloundecaphane-9-yl)-2-oxoacetamide [Compound 143]”, the IC50 at Human Calpain 1/NS1, on Human Calpain 2/NS1 and on Human Calpain 9/NS1 was < 3000 nM in each case.

Turning to `O=C[C@@H]1CCCCCCCCCCc2ccccc2C(=O)N1` [Compound 28, (S)-1-Oxo-2,3,4,5,6,7,8,9,10,11,12,13-dodecahydro-1h-benzo[c][1]aza-cyclopentadecine-3-carbaldehyde], the IC50 at Human Calpain 1/NS1, at Human Calpain 2/NS1 and on Human Calpain 9/NS1 was < 3000 nM in each case.

With `O=C[C@@H]1CCCCCOc2cccc(c2)-c2ncccc2C(=O)N1` [Compound 38, (S)-11-Oxo-3-oxa-10-aza-1(2,3)-pyridina-2(1,3)-benzenacycloundecaphane-9-carbaldehyde], the IC50 at Human Calpain 1/NS1, on Human Calpain 2/NS1 and on Human Calpain 9/NS1 was < 3000 nM throughout.

`O=C(NCCc1ccccn1)C(=O)C1CCCCOCCOCc2ccccc2C(=O)N1` (stereo not drawn) [Compound 82, 2-Oxo-2-(12-oxo-1,3,4,6,7,8,9,10,11,12-decahydrobenzo[f][1,4]dioxa[9]aza-cyclotetradecin-10-yl)-N-(2-(pyridin-2-yl)ethyl)acetamide]: the IC50 was > 10000 nM on Human Calpain 1/NS1, > 10000 nM on Human Calpain 2/NS1 and 3000 to 10000 nM at Human Calpain 9/NS1.

For `O=C[C@@H]1CCCCCOc2cccc(c2)-c2ccccc2C(=O)N1` [Compound 30, (S)-11-Oxo-3-oxa-10-aza-1(1,2),2(1,3)-dibenzenacycloundecaphane-9-carbaldehyde], the IC50 at Human Calpain 1/NS1, at Human Calpain 2/NS1 and on Human Calpain 9/NS1 was < 3000 nM throughout.

On to `COc1ccc(CNC(=O)C(=O)C2CCCCOCCOCc3ccccc3C(=O)N2)c(OC)c1` (stereo not drawn) [Compound 99, N-(2,4-dimethoxybenzyl)-2-oxo-2-(12-oxo-1,3,4,6,7,8,9,10,11,12-decahydrobenzo[f][1,4]dioxa[9]azacyclotetradecin-10-yl)acetamide], for which the IC50 at Human Calpain 1/NS1 was > 10000 nM; on Human Calpain 2/NS1, 3000 to 10000 nM; on Human Calpain 9/NS1 it was 3000 to 10000 nM.

Turning to `CON(C)C(=O)[C@@H]1C/C=C\CCOc2ccnc(n2)-c2ccccc2C(=O)N1` [Compound 136, (S,Z)—N-methoxy-N-methyl-3-oxo-11-oxa-4-aza-1(2,4)-pyrimidina-2(1,2)-benzenacycloundecaphan-7-ene-5-carboxamide], the IC50 at Human Calpain 1/NS1, on Human Calpain 2/NS1 and at Human Calpain 9/NS1 was > 10000 nM each time.

Turning to `CCCCc1ccc(CNC(=O)C(=O)C2CCCCOCCOCc3ccccc3C(=O)N2)cc1` (stereo not drawn) [Compound 112, N-(4-butylbenzyl)-2-oxo-2-(12-oxo-1,3,4,6,7,8,9,10,11,12-decahydrobenzo[f][1,4]dioxa[9]azacyclotetradecin-10-yl)acetamide], the IC50 was > 10000 nM at Human Calpain 1/NS1, > 10000 nM on Human Calpain 2/NS1 and < 3000 nM on Human Calpain 9/NS1.

For the compound `O=C[C@@H]1CCCCCOc2ccnc(n2)-c2ccccc2C(=O)N1` [Compound 139, (S)-3-oxo-11-oxa-4-aza-1(2,4)-pyrimidina-2(1,2)-benzena-cycloundecaphane-5-carbaldehyde], the IC50 at Human Calpain 1/NS1, at Human Calpain 2/NS1 and at Human Calpain 9/NS1 was < 3000 nM each time.

As for `O=C(NCCN1CCOCC1)C(=O)C1CCCCOCCOCc2ccccc2C(=O)N1` (stereo not drawn) [Compound 80, N-(2-morpholinoethyl)-2-oxo-2-(12-oxo-1,3,4,6,7,8,9,10,11,12-decahydrobenzo[f][1,4]dioxa[9]azacyclotetradecin-10-yl)acetamide], the IC50 on Human Calpain 1/NS1, on Human Calpain 2/NS1 and at Human Calpain 9/NS1 was > 10000 nM in each case.

On to `CCNC(=O)C(=O)[C@@H]1CCCCCCCCCc2ccccc2C(=O)N1` [Compound 27, (S)—N-ethyl-2-oxo-2-(1-oxo-1,2,3,4,5,6,7,8,9,10,11,12-dodecahydrobenzo[c][1]azacyclotetradecin-3-yl)acetamide], for which the IC50 at Human Calpain 1/NS1, on Human Calpain 2/NS1 and on Human Calpain 9/NS1 was > 10000 nM throughout.

As to `O=C[C@@H]1CCCCCCCCCc2ccccc2C(=O)N1` [Compound 16, (S)-1-Oxo-1,2,3,4,5,6,7,8,9,10,11,12-dodecahydrobenzo[c][1]aza-cyclotetradecine-3-carbaldehyde], the IC50 at Human Calpain 1/NS1 was 3000 to 10000 nM; at Human Calpain 2/NS1, < 3000 nM; at Human Calpain 9/NS1 it was < 3000 nM.

These data come from patent US11292801B2, “Calpain modulators and therapeutic uses thereof” (Blade Therapeutics, Inc., priority 2016, dated 2022).
